In the supplement of paper PMC5844555:

What was measured:
Assay in all cases: 3' UTR reporter interaction score (median-centred robust z-score of log2 firefly/Renilla activity); higher = less repression of the 3' UTR reporter
Conditions in all cases: HEK293T; 48 h
[1] = system: BRCA2
In short: (§1)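 For the interaction score, the firefly/Renilla ratio was log-transformed, expressed as a robust z-score per plate using median and median absolute deviation, and median-centred per miRNA; a more negative score indicates interaction. These scores come from at least two independent screens, averaged. Each screen used HEK293T cells at 10,000/well in 96-well plates, co-transfected with DharmaFECT Duo carrying 100 ng luc2P 3' UTR reporter, 20 ng pRL-TK and 2.5 pmol miRNA mimic, with luciferase read at 48 h.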

[2] = system: EZH2
In short: as §1

[3] = system: FBXW7
In short: as §1

[4] = system: HRAS
In short: as §1

[5] = system: MYB
In short: as §1

[6] = system: MYCN
In short: as §1

[7] = system: MYC
In short: as §1

[8] = system: MYT1L
In short: as §1

[9] = system: NOTCH1
In short: as §1

[10] = system: PHF6
In short: as §1

[11] = system: PHOX2B
In short: as §1

[12] = system: RB1
In short: as §1

[13] = system: TP53
In short: as §1

[14] = system: ZEB2
In short: as §1

Sequence | 3' UTR reporter interaction score [1] | 3' UTR reporter interaction score [2] | 3' UTR reporter interaction score [3] | 3' UTR reporter interaction score [4] | 3' UTR reporter interaction score [5] | 3' UTR reporter interaction score [6] | 3' UTR reporter interaction score [7] | 3' UTR reporter interaction score [8] | 3' UTR reporter interaction score [9] | 3' UTR reporter interaction score [10] | 3' UTR reporter interaction score [11] | 3' UTR reporter interaction score [12] | 3' UTR reporter interaction score [13] | 3' UTR reporter interaction score [14]
UGUGACUGGUUGACCAGAGGG | 0.687 | 0.91 | -1.25 | -0.321 | -1.86 | -1.12 | 0.219 | -0.108 | 0.462 | 0.602 | 0.929 | -1.22 | 0.803 | 1.2
UGUGCAAAUCCAUGCAAAACUGA | -0.438 | 0.306 | 0.561 | -1.63 | -1.86 | -3.09 | 0.638 | -0.216 | -0.355 | 0.456 | -0.753 | 0.608 | 0.0709 | -2.12
UGUGCAAAUCUAUGCAAAACUGA | -0.799 | -0.0175 | 0.679 | -1.18 | -0.797 | -2.74 | -0.0223 | 0.342 | -0.179 | 0.299 | 0.393 | 0.548 | 0.088 | -1.34
UGUGCUUGCUCGUCCCGCCCGCAG | 0.879 | -0.199 | -0.0879 | -0.789 | -0.522 | -0.114 | 0.429 | 0.198 | 0.256 | 1.4 | 0.4 | 0.514 | -0.328 | 0.763
UGUGUCACUCGAUGACCACUGU | 0.0202 | 1.04 | 1.58 | 1.13 | -0.364 | 0.203 | 0.947 | -1.73 | -1.12 | -0.745 | 0.976 | -0.876 | 0.4 | 0.295
UGUUUGCAGAGGAAACUGAGAC | -0.0179 | 0.739 | -1.52 | 1.34 | 1.43 | 0.322 | 0.778 | -0.13 | -0.933 | -0.0326 | -0.484 | -0.175 | -0.173 | -1.2
UUAAGACUUGCAGUGAUGUUUAA | 0.155 | 0.772 | 1.23 | 0.424 | -1.14 | 0.438 | -0.159 | -0.158 | 0.344 | -1.09 | -0.221 | -2.53 | 1.42 | -4.05
UUAAGGCACGCGGUGAAUGCCA | -0.0269 | -1.56 | 0.904 | 0.364 | -2.16 | 0.541 | -0.0293 | 2.33 | 0.623 | -1.29 | 0.282 | -1.9 | 0.35 | -0.335
UUAAUGCUAAUCGUGAUAGGGG | -0.67 | 1.21 | 0.373 | 0.347 | -1.61 | -0.313 | 0.891 | -0.119 | 0.178 | -0.0755 | 0.553 | -0.667 | 0.0933 | -0.523
UUACAGUUGUUCAACCAGUUACU | 1.74 | 0.156 | -1.36 | 0.218 | -0.553 | -1.85 | 0.385 | 0.162 | -0.374 | 1.47 | -0.835 | -3.47 | 0.131 | -1.76
UUAUAAUACAACCUGAUAAGUG | 0.693 | 0.963 | -0.529 | 0.161 | -0.653 | 0.404 | 1.32 | -1.13 | -0.345 | -0.286 | -0.00808 | 1.94 | -0.443 | -0.469
UUAUCAGAAUCUCCAGGGGUAC | 0.769 | -0.893 | 0.189 | 0.803 | 1.26 | -0.164 | 1.44 | -0.147 | 0.0518 | 0.08 | -1.55 | -0.955 | -0.646 | 0.799
UUAUGGUUUGCCUGGGACUGAG | 0.104 | 0.163 | -3.46 | 0.369 | 1.44 | -0.255 | 0.675 | 1.06 | -0.409 | -0.769 | 0.156 | -0.796 | -1.16 | -0.72
UUCAACGGGUAUUUAUUGAGCA | 0.803 | 0.563 | 0.647 | 1.35 | -0.5 | 0.423 | -0.455 | -0.699 | -0.631 | -0.872 | 0.542 | 0.475 | 0.52 | -0.63
UUCAAGUAAUCCAGGAUAGGC | 1.36 | -4.57 | 1.99 | -0.41 | 1.11 | -0.368 | -1.71 | 1.27 | 1.68 | -0.0329 | -0.534 | -0.662 | 0.423 | -0.465
UUCAAGUAAUUCAGGAUAGGUU | 0.455 | -4.18 | 1.51 | -1.14 | 1.26 | 0.732 | -1.49 | 1.44 | 1.02 | -0.939 | 0.967 | -1.95 | -0.282 | 0.133
UUCACAGGGAGGUGUCAUUUAU | -0.226 | 1.32 | -3.1 | 0.0679 | -0.536 | 1.06 | 0.377 | 0.885 | 0.269 | -1.72 | -0.65 | 0.105 | 0.0668 | -0.846
UUCACAGUGGCUAAGUUCUGC | -0.687 | -0.367 | -3.31 | -1.25 | 1.56 | 0.736 | -0.0656 | 0.34 | 1.04 | 0.752 | 0.845 | 0.0429 | -0.662 | 0.787
